Source: patent US20250382280A1, “PYRAZOLE DERIVATIVES FOR THE INHIBITION OF PHAGOCYTOSIS” (Canadian Blood Services, priority 2022, published 2025)
Where two headings read alike, the source gives them in different places.

How the values were obtained:
PBMC, HEPG2, and HEK-293 [1] = test: apoptosis assay (Annexin V/PI); type: cell-based, human; settings: 250 μM, 1 hour; PBMCs, HEPG2, HEK293
Procedure: PBMC, HEPG2, and HEK-293 cells were treated for 1 hour with the compound KB-151 or the compound KB-208 at a 250 μM concentration. 100 μM thimerosal was used as a positive control for viability (diluted in RPMI). Staining with Annexin V and PI was performed according to the manufacturer's procedure for the Annexin-V-FLUOS Staining Kit (Sigma) and samples were run through an SP6800 Spectral Cytometer.
(§1) To further determine the potential for toxicity of compounds KB-151 and KB-208, additional toxicity studies were done using higher concentrations, up to 250 μM of each compound, using LDH and MTT (FIGS. 4A-4D), and an apoptosis assay (Annexin V/PI) (FIGS. 5A-5C).

[2] = test system: attachment of antibody-opsonized RBCs to FcγRs on monocytes; test: room temperature RBC rosette assay (binding of anti-D opsonized RBCs to monocytes); type: cell-based; settings: 100 μM
Description: Fluorescent dye-labelled RBCs opsonized with anti-D were used to study the mechanism of phagocytosis inhibition using a room temperature assay to look for RBC rosettes (attachment of antibody-opsonized RBCs' to FcγRs) in the presence of monocytes. IVIg was used as the positive control and no treatment as the negative control. In the negative control, monocytes bound to the RBC and initiated phagocytosis (FIGS. 11A and 11E).

PBMC, HEPG2, and HEK-293 [3] = test: LDH assay at higher concentrations (up to 250 μM); type: cell-based; settings: PBMCs, HEPG2, HEK293
Procedure: (§2) Cell lines (HepG2, liver-derived, HB-8065™; HEK293, kidney-derived cell line, CRL-1573™) were purchased from the ATCC. Both cell lines were cultured in Eagle's Minimum Essential Medium supplemented with 10% fetal calf serum.
as §1

[4] = 60-day toxicity in Balb/c mice (blood biochemistry, histopathology); type: in vivo; settings: after 60 days of treatment
Procedure: (§3) The efficacy of KB-151 and KB-208 at diminishing the platelet level was assessed in three ITP mice models: C57BL/6 (FIG. 7), Balb/c (FIGS. 8A-8B), and CD1 (FIG. 9). […] The toxicity was also assessed using the Balb/c model.

PP2A = PP2A phosphatase activity; type: biochemical
Description: (§4) The mechanism of action of KB-208 and KB-151 was investigated further to evaluate the effects on signal transduction. Many kinases were studied including Akt1/2/3 (T308), Akt1/2/3 (S473), CREB, EGF R1 eNOS, ERK1/2, Chk-2, c-Jun, Fgr, GSK-3a/p, GSK-3p, HSP27, p53 (S15), p53 (S46), p53 (S392), JNK 1/2/3, Lck, Lyn, MSK1/2, p70 S6 kinase (T389), p70 S6 kinase (T421/S424), PRAS40, p38a, PDGF RP, PLC-γ1, Src, PYK2, RSK1/2, RSK1/2/3, STAT2, STAT5a/b, WNK1, Yes, STAT1, STAT3 (Y705), STAT3 (S727), β-catenin, STAT6, and HSP60. […] It was then confirmed that KB-208 and KB-151 activate PP2A (in other words they increase its phosphatase activity) (FIG. 14). PP2A is a serine phosphatase that dephosphorylates HSP27. Deregulation of HSP27 also occurs in diseases other than immune cytopenias for example prostate cancer, colorectal cancer, and breast cancer.

ITP mice model = test: anti-CD41 antibody ITP mouse model (platelet count); type: in vivo; settings: Balb/c, day 4 after two treatment doses on days 2 and 3, 100 μM s.c. twice a day, vs CD-41 group (*P≤0.05)
Procedure: An in vivo phagocytosis inhibition assay was performed with KB-151 in a mouse model, Balb/c animals (FIG. 6A and FIG. 6B). A dose of 100 μM of KB-151 was injected to 20.5 g mice at 500 μL based on the following calculations:
A dose-escalation anti-CD41 antibody ITP mouse model was used.
as §3

[5] = test system: phagocytosis of anti-D-opsonized Rh(D+) red cells by monocytes; test: monocyte monolayer assay (MMA), in vitro phagocytosis assay; type: cell-based, human; set-up: key to Phagocytic index (PI): number of phagocytosed RBCs per 100 monocytes; settings: for Phagocytic index (PI): PI = (# of phagocytic red blood cells)/(300 monocytes) * 100; for IC50 / EC50: dose-inhibitory response; for IC50: 0.5-100 μM, read-out: IC50 for inhibition of phagocytosis; for effect on IVIg dose-response curve (cooperation/synergy with IVIg): compound added at its IC50 concentration to each IVIg concentration
Procedure: The MMA to screen compounds for their ability to inhibit phagocytosis was performed as previously described (Purohit, M. K. et al., Bioorg. Med. Chem. Lett. 2013; 23:2324-7; and Purohit, M. K. et al., Bioorg. Med. Chem. 2014; 22:2739-52.). Briefly, Mononuclear cells (PBMCs) were layered onto chamber slides and monocytes purified by adherence after 1 hr at 37° C. with 5% CO2. Drugs were solubilized in 100% DMSO and then diluted in Roswell Park Memorial Institute (RPMI) to the final concentration of 5 μM, as previously reported (8,9). Corresponding dimethyl sulfoxide (DMSO) volumes in RPMI medium were used as a control. After one hour, indicator Rh-positive red cells opsonized with anti-RhD were added to the chamber slides and then further incubated for 2 hours before fixing and counting phagocytosed red blood cells (RBCs) using phase-contrast microscopy. As a positive control for inhibition, Intravenous immunoglobulin (IVIg) was used, known to inhibit phagocytosis due to blocking of FcγRs. The phagocytosis index (PI) was determined as the number of phagocytosed RBCs in 100 monocytes. The percent inhibition of phagocytosis was determined by comparing the PI in each treated sample to the PI in the untreated sample, which was determined by normalizing the PI concentration in each treated sample (phagocytosis of opsonized RBCs with vehicle only, representing 100 percent phagocytosis.
Concentrations included 100 μM, 50 μM, 25 μM, 10 μM, 5 μM, 2.5 μM, 1 μM, and 0.5 μM.
The 80 selected pyrazole core compounds were screened using a concentration of 5 μM in the in vitro phagocytosis assay, referred to as the monocyte monolayer assay (MMA). Compounds were compared to a standard intravenous immunoglobulin (IVIg) at a concentration of 1 mg/mL.

PBMC, HEPG2, and HEK-293 [6] = test: MTT assay at higher concentrations (up to 250 μM); type: cell-based, human; settings: PBMCs, HEPG2, HEK293
Procedure: as §2, §1

[7] = test system: FcγRI (CD64), FcγRII (CD32), and FcγRIII (CD16); test: FcγR expression on monocytes with monoclonal antibodies; type: cell-based; settings: monocytes untreated or treated
Procedure: Due to observing similar results as IVIG, the binding of KB-208 and KB-151 to FcγR was evaluated to determine the attachment between KB-208 or KB-151 and FcγR. Three monoclonal antibodies each specific for FcγRI (CD64), FcγRII (CD32), and FcγRIII (CD16) were used to test the resulting expression of FcγRI, FcγRII and FcγRIII.

HSP27 = test: signal transduction study, phosphorylated HSP27 level; type: cell-based; settings: no RBC, un-opsonized RBC
Description: as §4

[8] = Homo sapiens, Monocyte, 5 μM compound, screening of the 80 compounds, read-out: Average inhibition (% ± standard deviation)
[9] = Homo sapiens, Monocyte, 5 μM, anti-D-opsonized Rh(D+) red cells, read-out: Inhibition percentage

Structure (SMILES)	Phagocytic index (PI) ([5]; 5 μM)	inhibition at 5 µM [5, 8]	inhibition at 5 µM [5, 9]	also measured
CCOC(=O)c1nn(-c2ccccc2)c(C#N)c1NC(=O)c1nn(CC)cc1Br [KB-151]	17	80 ± 3.68%	80%	toxicity by apoptosis assay (Annexin V/PI) (PBMC, HEPG2, and HEK-293 [1]): low to no toxicity; binding of monocytes to anti-D opsonized RBCs and phagocytosis [2]: inhibit the binding and inhibit phagocytosis similarly to IVIg; toxicity by LDH (PBMC, HEPG2, and HEK-293 [3]): low to no toxicity; histopathology of liver, heart, spleen, lymph nodes, and kidney [4]: showed abnormalities nor any toxicity; toxicity (blood biochemistry) [4]: Minimal toxicity; PP2A phosphatase activity (PP2A): activate PP2A; platelet (PLT) count (ITP mice model): significant increase; IC50 ([5]; Homo sapiens, Monocyte): 2.71 ± 0.786 µM; EC50 ([5]; Homo sapiens, Monocyte, unit inferred): 8 ± 4 µM; effect on IVIg dose-response curve (cooperation/synergy with IVIg) [5]: no effect; IC50 [5]: 3 µM; toxicity by MTT (PBMC, HEPG2, and HEK-293 [6]): low to no toxicity; binding to Fcγ receptors (FcγRI, FcγRII, FcγRIII expression on monocytes) [7]: independent of binding the three tested Fcγ receptors; effect on HSP27 phosphorylation (HSP27): dephosphorylate HSP27
COc1ccccc1-c1cc(C(=O)Nc2c(C)n(C)n(-c3ccccc3)c2=O)no1 [KB-200]		31 ± 1.84%		
CN(C)CCNC(=O)c1cc(-c2ccc(Cl)cc2)nn1-c1ccccc1 [KB-201]		0%		
CNC(=O)c1cc(-c2cccs2)[nH]n1 [KB-202]		33 ± 2.31%		
O=C(NCc1ccncc1)c1cnn(-c2ccccc2F)c1-n1cccc1 [KB-203]		27 ± 2.72%		
O=C(Nc1ccncc1)c1cc(C2CC2)nn1-c1ccccc1 [KB-204]		36 ± 3.6%		
CC(CCc1ccccc1)NC(=O)c1cnn(C)c1-n1cccc1 (stereo not shown) [KB-205]	19	47 ± 0.98%	47%	
CC(C)c1cc(C(=O)Nc2nnc(C3CCCO3)s2)n(-c2ccccc2)n1 (stereo not shown) [KB-206]	18	50 ± 5.46%	50%	
COCc1nnc(NC(=O)c2cnn(C)c2-n2cccc2)s1 [KB-207]		14 ± 1.86%		
COC(=O)CC1CCN(C(=O)c2cc(-c3cccs3)nn2-c2ccccc2)CC1 [KB-208]	7	81 ± 3.43%	81%	toxicity by apoptosis assay (Annexin V/PI) (PBMC, HEPG2, and HEK-293 [1]): low to no toxicity; binding of monocytes to anti-D opsonized RBCs and phagocytosis [2]: inhibit the binding and inhibit phagocytosis similarly to IVIg; toxicity by LDH (PBMC, HEPG2, and HEK-293 [3]): low to no toxicity; PP2A phosphatase activity (PP2A): activate PP2A; IC50 ([5]; Homo sapiens, Monocyte): 4.21 ± 1.24 µM; EC50 ([5]; Homo sapiens, Monocyte): 5 ± 0.2 µM; effect on IVIg dose-response curve (cooperation/synergy with IVIg) [5]: no effect; IC50 [5]: 4 µM; toxicity by MTT (PBMC, HEPG2, and HEK-293 [6]): low to no toxicity; binding to Fcγ receptors (FcγRI, FcγRII, FcγRIII expression on monocytes) [7]: independent of binding the three tested Fcγ receptors; effect on HSP27 phosphorylation (HSP27): dephosphorylate HSP27
Nc1c(C(=O)O)cnn1-c1ccc(F)cc1F [KB-209]	18	50 ± 1.02%	50%	
O=C(Nc1nccs1)c1cnn(-c2ccccc2)c1-n1cccc1 [KB-210]	11	69 ± 5.32%	69%	IC50 ([5]; Homo sapiens, Monocyte): 22.1 µM; EC50 ([5]; Homo sapiens, Monocyte): > 10 µM
FC(F)(F)c1cc(-c2cccs2)nc(-n2nc(C(F)(F)F)c3c2CCC3)n1 [KB-211]		33 ± 2.31%		
CSc1cccc(NC(=O)c2cnn(C)c2-n2cccc2)c1 [KB-212]	19	47 ± 9.67%	47%	
COc1ccc(-c2cc(C(=O)NCCc3c[nH]c4ccccc34)[nH]n2)cc1 [KB-213]	13	64 ± 8.74%	64%	
